Reference: US11242350B2, “Spirocyclic ROR-gamma modulators” (Escalier Biosciences B.V., priority 2018, dated 2022)

Target: RORγt (Homo sapiens (Human), UniProt P51449)
Experiment: Gal4 ligand binding assay (RORγt Gal fusion luciferase reporter assay in HEK293T cells)
Format: cell-based
Conditions: RORγt inverse agonists in RORγt Gal fusion assay
Method: The N-terminal DNA binding domains (DBD) of the native RORγ and RORγt receptors have been substituted with that of the yeast GAL4-DBD and stably transfected in HEK293T cells that also stably express luciferase under the regulation by upstream activation sequence of yeast Gal4. These cells constitutively express high level RORγ activity due to binding of endogenous co-factors. Both agonist and inverse agonist activity can be detected. The assay was performed according to kit manufacturer's instructions as follows. 10 mM compound stocks were diluted serially 1:3 with DMSO and further diluted with provided media to generate 10 titration points from 60 μM to 3 nM. These treatment conditions were added to the plates as 2× media in 100 μL volume. Each plate includes a positive control with 10 titration points as well as 6 negative control wells with vehicle only, with final DMSO concentration of 0.2%. RORγ reporter cells were rapidly thawed and added to the plates in 100 μL volume. The plates were incubated for 24 h in a 37° C. humidified 5% CO2 incubator. Media was removed before the addition of room temperature luciferous detection substrate. After 5 minute incubation, relative light units (RLUs) were quantified using a plate reading luminometer. Data was normalized to […] with only 0.2%0DMSO. Before establishing internal controls, ursolic acid was used as control.

RORγt, sequence (P51449 269-508): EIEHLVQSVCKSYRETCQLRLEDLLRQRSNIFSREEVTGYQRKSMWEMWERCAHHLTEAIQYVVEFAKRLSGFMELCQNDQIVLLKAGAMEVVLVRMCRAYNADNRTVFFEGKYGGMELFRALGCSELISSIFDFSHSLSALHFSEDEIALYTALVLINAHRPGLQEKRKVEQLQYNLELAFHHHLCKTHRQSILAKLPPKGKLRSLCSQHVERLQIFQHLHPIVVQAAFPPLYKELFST

Compound | IC50 [nM]
CC(C)c1cc(CN2CC3(C2)CN(S(C)(=O)=O)C3)cc(F)c1-c1ccc(C(O)(C(F)(F)F)C(F)(F)F)cc1 [Example 15, 1,1,1,3,3,3-hexafluoro-2-(2′-fluoro-6′-isopropyl-4′-((6-(methylsulfonyl)-2,6-diazaspiro[3.3]heptan-2-yl)methyl)-[1,1′-biphenyl]-4-yl)propan-2-ol] | < 50
CCc1cc(CN2CC3(C2)CN(S(C)(=O)=O)C3)ccc1-c1ccc(C(O)(C(F)(F)F)C(F)(F)F)cc1C#N [Example 65, 2′-ethyl-4-(1,1,1,3,3,3-hexafluoro-2-hydroxypropan-2-yl)-4′-((6-(methylsulfonyl)-2,6-diazaspiro[3.3]heptan-2-yl)methyl)-[1,1′-biphenyl]-2-carbonitrile] | < 50
CCc1cc(C(O)(C(F)(F)F)C(F)(F)F)ccc1-c1c(F)cc(CN2CC3(C2)CN(S(C)(=O)=O)C3)c(F)c1C(C)C [Example 85, 2-(2-ethyl-3′,6′-difluoro-2′-isopropyl-4′-((6-(methylsulfonyl)-2,6-diazaspiro[3.3]heptan-2-yl)methyl)-[1,1′-biphenyl]-4-yl)-1,1,1,3,3,3-hexafluoropropan-2-ol] | < 50
Cc1cc(C(O)(C(F)(F)F)C(F)(F)F)ccc1-c1ccc(CN2CC3(C2)CS(=O)(=O)C3)cc1C(C)C [Example 12, 6-((4′-(1,1,1,3,3,3-hexafluoro-2-hydroxypropan-2-yl)-2-isopropyl-2′-methyl-[1,1′-biphenyl]-4-yl)methyl)-2-thia-6-azaspiro[3.3]heptane 2,2-dioxide] | 50 to 250
CCc1cc(CN2CC3(C2)CN(C(=O)OC)C3)ccc1-c1ccc(C(O)(C(F)(F)F)C(F)(F)F)cc1 [Example 40, methyl 6-((2-ethyl-4′-(1,1,1,3,3,3-hexafluoro-2-hydroxypropan-2-yl)-[1,1′-biphenyl]-4-yl)methyl)-2,6-diazaspiro[3.3]heptane-2-carboxylate] | 50 to 250

Results, then the molecule that gave them:

IC50 [nM] | Compound
< 50 | CCc1cc(CN2CCC3(CCS(=O)(=O)C3)C2)ccc1-c1ccc(C(O)(C(F)(F)F)C(F)(F)F)cc1 (centres unmarked) [Example 58, 7-((2-ethyl-4′-(1,1,1,3,3,3-hexafluoro-2-hydroxypropan-2-yl)-[1,1′-biphenyl]-4-yl)methyl)-2-thia-7-azaspiro[4.4]nonane 2,2-dioxide]
< 50 | CC(C)c1cc(CN2CC3(C2)CN(S(C)(=O)=O)C3)c(F)cc1-c1ccc(C(O)(C(F)(F)F)C(F)(F)F)cc1 [Example 78, 1,1,1,3,3,3-hexafluoro-2-(5′-fluoro-2′-isopropyl-4′-((6-(methylsulfonyl)-2,6-diazaspiro[3.3]heptan-2-yl)methyl)-[1,1′-biphenyl]-4-yl)propan-2-ol]
< 50 | CC(C)c1cc(CN2CC3(C2)CN(S(C)(=O)=O)C3)c(F)cc1-c1ccc(C(O)(C(F)(F)F)C(F)(F)F)cc1Cl [Example 81, 2-(2-chloro-5′-fluoro-2′-isopropyl-4′-((6-(methylsulfonyl)-2,6-diazaspiro[3.3]heptan-2-yl)methyl)-[1,1′-biphenyl]-4-yl)-1,1,1,3,3,3-hexafluoropropan-2-ol]
< 50 | CCc1cc(C(O)(C(F)(F)F)C(F)(F)F)ccc1-c1c(F)cc(CN2CC3(C2)CN(S(C)(=O)=O)C3)c(F)c1CC [Example 71, 2-(2,2′-diethyl-3′,6′-difluoro-4′-((6-(methylsulfonyl)-2,6-diazaspiro[3.3]heptan-2-yl)methyl)-[1,1′-biphenyl]-4-yl)-1,1,1,3,3,3-hexafluoropropan-2-ol]
< 50 | CCc1cc(CN2CC3(C2)CN(S(C)(=O)=O)C3)ccc1-c1ccc(C(O)(C(F)(F)F)C(F)(F)F)cc1Cl [Example 75, 2-(2-chloro-2′-ethyl-4′-((6-(methylsulfonyl)-2,6-diazaspiro[3.3]heptan-2-yl)methyl)-[1,1′-biphenyl]-4-yl)-1,1,1,3,3,3-hexafluoropropan-2-ol]
50 to 250 | CS(=O)(=O)N1CC2(CN(Cc3ccc(-c4ccc(C(O)(C(F)(F)F)C(F)(F)F)cc4)cc3O)C2)C1 [Example 61, 4′-(1,1,1,3,3,3-hexafluoro-2-hydroxypropan-2-yl)-4-((6-(methylsulfonyl)-2,6-diazaspiro[3.3]heptan-2-yl)methyl)-[1,1′-biphenyl]-3-ol]
